According to patent publication US20220177476A1, “Crystal Forms of (S)-4-(8-amino-3-(1-(but-2-ynoyl)-pyrrolidin-2-yl)imidazo[1,5-a]pyrazin-1-yl)-n-(pyridin-2-yl)benzamide” (Acerta Pharma B.V., priority 2015, published 2022):
Values after ≈ are worked out from the molar mass of the structure shown.

Key:
[1] = Approximate solubility of Form I by stepwise dilution of a suspension; type: physicochemical; conditions: thermodynamic from solid, read-out: Solubility [S, mg/mL]
Procedure: Form I was also tested with respect to solubilities in various water-solvent mixtures and non-aqueous solvents. Solubility studies were conducted by a stepwise dilution of a suspension of about 10 mg of Form I in 0.1 mL of analytical grade solvent. Solubility values are estimated approximations and are subject to variable experimental error.

[2] = Aqueous solubility after equilibrating at 25° C. for three days (HPLC); type: physicochemical; conditions: water, 25° C., three days
Procedure: Finally, Form II was tested with respect to solubilities in various water-solvent mixtures and non-aqueous solvents. […] High-performance liquid chromatography (HPLC) was used to determine the concentration of Form II in the filtered solution at approximately 14 μg/mL, which translates into a critical water activity (aw) of about 0.59.

[3] = Dynamic vapor sorption (DVS); type: physicochemical; conditions: DVS
Procedure: A gravimetric vapor sorption study was run using a standard procedure. Samples were run using a dynamic vapor sorption (DVS) analyzer. Sample sizes were approximately 10 mg. A moisture adsorption-desorption isotherm was performed as outlined below.

[4] = Solubility of Form I by HPLC in solvents and water-solvent mixtures; type: physicochemical; conditions: for solubility: organic solvent or mixture, thermodynamic from solid, read-out: Solubility (S, mg/mL)
Procedure: The solubility of recrystallized Formula (1) Form I was tested in various water-solvent mixtures and non-aqueous solvents.

[5] = Intrinsic dissolution rate (paddle over stationary disc); type: physicochemical
Procedure: The intrinsic dissolution rate (IDR) was measured for Forms I and II of the free base of Formula (1). IDR was measured using a paddle over stationary disc equipped dissolution apparatus with concentration determined using liquid chromatographic analysis against a standard. […] Form I has an IDR of 6.8 mg/cm^2/min in simulated gastric fluid (SGF) (pH 1.2) and an IDR of 0.44 mg/cm^2/min in pH 2.5 HCl/NaCl buffer. Form II has an IDR of 5.4 mg/cm^2/min in SGF and an IDR of 0.35 mg/cm^2/min in pH 2.5 HCl/NaCl buffer.

[6] = Plasma exposure after single oral administration in fasted beagle dogs; type: in vivo; conditions: nine fasted beagle dogs, single oral administration of 6 mg/kg, oral capsule
Procedure: The plasma exposure of Forms I and II of the free base of Formula (1) were compared in nine fasted beagle dogs after a single oral administration of 6 mg/kg of either form using batches with a similar particle size distribution. The experiment was performed in 5 weekly phases, with the Form II phase last. […] There was a good in vitro in vivo correlation for the dissolution rates of Form 1 and Form II, and the performance of each form of Formula (1) when delivered by oral capsule to dogs.

[7] = Human Phase 1 interaction study of calcium carbonate, omeprazole, or rifampin on Formula (1); type: in vivo; conditions: healthy adult subjects, acid reducing agents prior to administration
[8] = Relative stability of solid forms (water activity, suspension equilibration, storage); type: physicochemical
Text: Critical water activity is a measure of the relative thermodynamic stability of Form I in comparison to the trihydrate Form II. […] Suspension equilibration experiments in ethanol-water mixtures, each having a different water activity, affirmed this conclusion. Water activities included in the experiments were maintained at: about 0.35 (ethanol-water ratio of 95:5, PP502-P32), about 0.53 (ethanol-water ratio of 9:1, PP502-P33) and about 0.77 (ethanol-water ratio of 7:3, PP502-P34).
Because the DVS results of Form II indicate reversible moisture sorption-desorption behavior (see above), tests were performed to confirm that storage of the dehydrated Form II sample (i.e., Form IV) at about 60% RH would again lead to the trihydrate form (Form II). […]

CC#CC(=O)N1CCC[C@H]1c1nc(-c2ccc(C(=O)Nc3ccccn3)cc2)c2c(N)nccn12 [Form I, (S)-4-(8-amino-3-(1-(but-2-ynoyl)pyrrolidin-2-yl)imidazo[1,5-α]pyrazin-1-yl)-N-(pyridin-2-yl)benzamide]
solubility ([1]; 2-propanol, organic solvent or mixture): < 1 mg/mL | solubility ([1]; MEK saturated with water, organic solvent or mixture): 26 to 30 mg/mL (≈ 55.9 to 64.4 mM) | solubility ([1]; THF:water 9:1, organic solvent or mixture): > 50 mg/mL | solubility ([1]; acetic acid, organic solvent or mixture): 102 to 204 mg/mL (≈ 219 to 438 mM) | solubility ([1]; acetic acid:MEK 1:9, organic solvent or mixture): 63 to 95 mg/mL (≈ 135 to 204 mM) | solubility ([1]; acetic acid:ethyl acetate 1:1, organic solvent or mixture): 92 to 184 mg/mL (≈ 198 to 395 mM) | solubility ([1]; acetic acid:ethyl acetate 1:9, organic solvent or mixture): 60 to 90 mg/mL (≈ 129 to 193 mM) | solubility ([1]; acetic acid:isopropanol 1:9, organic solvent or mixture): ~4 mg/mL (≈ 8.59 mM) | solubility ([1]; acetic acid:water 1:1, aqueous with cosolvent or surfactant or cyclodextrin): 104 to 208 mg/mL (≈ 223 to 447 mM) | solubility ([1]; acetone, organic solvent or mixture): ~2 mg/mL (≈ 4.3 mM) | solubility ([1]; acetone:water 4:1, organic solvent or mixture): 26 to 31 mg/mL (≈ 55.9 to 66.6 mM) | solubility ([1]; acetonitrile, organic solvent or mixture): < 1 mg/mL | solubility ([1]; ethanol, organic solvent or mixture): ~3 mg/mL (≈ 6.44 mM) | solubility ([1]; ethanol:water 1:1, aqueous with cosolvent or surfactant or cyclodextrin): ~6 mg/mL (≈ 12.9 mM) | solubility ([1]; ethanol:water 95:5, organic solvent or mixture): ~8 mg/mL (≈ 17.2 mM) | solubility ([1]; ethyl acetate, organic solvent or mixture): < 1 mg/mL | solubility ([1]; formic acid, organic solvent or mixture): 97 to 194 mg/mL (≈ 208 to 417 mM) | solubility ([1]; methanol, organic solvent or mixture): ~14 mg/mL (≈ 30.1 mM) | solubility ([1]; methanol:water 9:1, organic solvent or mixture): ~15 mg/mL (≈ 32.2 mM) | solubility ([1]; organic solvent or mixture, 2-butanone, MEK): < 1 mg/mL | solubility ([1]; organic solvent or mixture, N,N-dimethylformamide, DMF): 49 to 65 mg/mL (≈ 105 to 140 mM) | solubility ([1]; organic solvent or mixture, N-methyl-2-pyrrolidone, NMP): 39 to 49 mg/mL (≈ 83.8 to 105 mM) | solubility ([1]; organic solvent or mixture, dichloromethane, DCM): 36 to 43 mg/mL (≈ 77.3 to 92.4 mM) | solubility ([1]; organic solvent or mixture, dimethyl sulfoxide, DMSO): 39 to 49 mg/mL (≈ 83.8 to 105 mM) | solubility ([1]; organic solvent or mixture, ethanol:water 9:1 at 60° C.): > 60 mg/mL | solubility ([1]; organic solvent or mixture, methanol:MEK 1:1 at reflux): > 90 mg/mL | solubility ([1]; organic solvent or mixture, tetrahydrofuran, THF): ~5 mg/mL (≈ 10.7 mM) | solubility ([1]; trifluoroethane, organic solvent or mixture): 97 to 194 mg/mL (≈ 208 to 417 mM) | solid residue after aqueous solubility test (PXRD) [2]: Form I was retained | hygroscopicity (DVS), in words [3]: not hygroscopic | total weight gain observed between 0% RH and 80% RH [3]: about 0.17% | water content at 50% RH [3]: approximately 0.25% | water absorption within the timeframe of the test ([3]; at 95% RH): less than 0.3% | hygroscopicity according to the European Pharmacopoeia (EP) classification ([3]; weight increase at 80% RH): non-hygroscopic (non-hygroscopic: <0.2%) | maximum water content (saturation) at about 95% RH ([3]; listed as recrystallized Formula (1)): approximately 0.5% | Solubility (S, mg/mL) ([4]; 1-propanol, 25° C.): 4.0 mg/mL (≈ 8.59 mM) | Solubility (S, mg/mL) ([4]; ethyl acetate, 25° C.): 1.5 mg/mL (≈ 3.22 mM) | solubility ([4]; 1-propanol, 5° C.): 3.4 mg/mL (≈ 7.3 mM) | solubility ([4]; 1-propanol, 60° C.): 14.4 mg/mL (≈ 30.9 mM) | solubility ([4]; 1-propanol, r.t.): 4.7 mg/mL (≈ 10.1 mM) | solubility ([4]; 2-propanol, 25° C.): 1.3 mg/mL (≈ 2.79 mM) | solubility ([4]; MEK, 25° C.): 3.7 mg/mL (≈ 7.95 mM) | solubility ([4]; THF, 25° C.): 20.4 mg/mL (≈ 43.8 mM) | solubility ([4]; acetone at RFT): 10 mg/mL (≈ 21.5 mM) | solubility ([4]; acetone, 25° C.): 4.1 mg/mL (≈ 8.81 mM) | solubility ([4]; ethanol, 5° C.): 3.6 mg/mL (≈ 7.73 mM) | solubility ([4]; ethanol, 25° C.): 4.4 mg/mL (≈ 9.45 mM) | solubility ([4]; ethanol, 50° C.): 10.2 mg/mL (≈ 21.9 mM) | solubility ([4]; ethanol-water 9:1, 25° C.): 23.7 mg/mL (≈ 50.9 mM) | solubility ([4]; ethanol-water 96:4, 0° C.): 6.7 mg/mL (≈ 14.4 mM) | solubility ([4]; ethanol-water 96:4, 25° C.): 10 mg/mL (≈ 21.5 mM) | solubility ([4]; ethanol-water 96:4, 60° C.): 24.7 mg/mL (≈ 53.1 mM) | solubility ([4]; methanol, 25° C.): 19.9 mg/mL (≈ 42.7 mM) | increase in IDR relative to Form II ([5]; at both conditions (SGF and pH 2.5 buffer)): ~26% | intrinsic dissolution rate (IDR) ([5]; pH 2.5 HCl/NaCl buffer): 0.44 mg/cm^2/min | intrinsic dissolution rate (IDR) ([5]; simulated gastric fluid (SGF) (pH 1.2)): 6.8 mg/cm^2/min | exposure [6]: higher exposure in the beagle than Form II | exposure after treatment with acid reducing agents [7]: significant decreases in exposure | form recovered after suspension equilibration in methanol ([8]; 5° C., methanol, mixture of Forms (I), VI, and VII, five days): pure Form I was recovered | relative thermodynamic stability of Form I and Form II ([8]; room temperature, depending on water activity): Below an aw of about 0.59, Form I is more stable
